Measured values reported in PMC6270232, “1,2,3-Triazole-Substituted Oleanolic Acid Derivatives: Synthesis and Antiproliferative Activity” (Molecules, 2013).

Columns and labels:
[1] = system: normal lung fibroblasts (MRC-5); assay: Antiproliferative assay (MTT reduction), MRC-5; assay type: cell-based, human; set-up: key to Antiproliferative activity in words, MRC-5: IC50 values > 100 µM were considered inactive; conditions: for IC50: Homo sapiens, MRC5, 72 h, MRC-5 normal lung fibroblasts, 3 days treatment, MTT, read-out: IC50 ± SD, MRC-5
Procedure: (§1) All human cell lines used in this work were purchased from the American Type Culture Collection (ATCC, Manasas, VA, USA). […] Promyelocytic leukemia HL-60 cells (CCL-240) were grown in suspension in RPM1 medium containing 1 mM sodium pyruvate and 2.0 g/L sodium bicarbonate. All media were supplemented with 10% heat-inactivated FBS, 100 IU/mL penicillin and 100 µg/mL streptomycin. […] For the antiproliferative assay, adherent cells were plated at a density of 5 × 10^4 cells/mL and HL-60 cells at 30 × 10^4 cells/mL. Cells were seeded in 96-well plates (100 µL/well). One day after seeding, cells were treated with medium containing the compounds at concentrations ranging from 0 up to 100 µM during 3 days. The compounds were dissolved in DMSO (1% final concentration) and complete medium. Untreated cells (medium containing 1% DMSO) were used as 100% viability controls. […] Each concentration was tested in sextuplicate and experiments were repeated 2 times. Cell viability was determined by means of the MTT reduction assay at the end of the incubation with the products.

[2] = system: lung cancer (SK-MES-1) cells; assay: Antiproliferative assay (MTT reduction), SK-MES-1; assay type: cell-based; conditions: Homo sapiens, 72 h, SK-MES-1 lung cancer cells, 3 days treatment, read-out: IC50 ± SD, SK-MES-1
Procedure: as §1

[3] = system: bladder carcinoma (J82) cells; assay: Antiproliferative assay (MTT reduction), J82; assay type: cell-based; conditions: Homo sapiens, 72 h, 3 days treatment, read-out: IC50 ± SD, J82
Procedure: (§2) All human cell lines used in this work were purchased from the American Type Culture Collection (ATCC, Manasas, VA, USA). Normal lung MRC-5 fibroblasts (CCL-171), SK-MES-1 lung cancer cells (HTB-58) and J82 bladder carcinoma cells (HTB-1) were grown as monolayers in minimum essential Eagle medium (MEM) with Earles’s salts, 2 mM L-glutamine and 1.5 g/L sodium bicarbonate. Gastric adenocarcinoma AGS cells (CRL-1739) were grown as monolayers in Ham F-12 medium containing 1 mM L-glutamine and 1.5 g/L sodium bicarbonate. Promyelocytic leukemia HL-60 cells (CCL-240) were grown in suspension in RPM1 medium containing 1 mM sodium pyruvate and 2.0 g/L sodium bicarbonate. All media were supplemented with 10% heat-inactivated FBS, 100 IU/mL penicillin and 100 µg/mL streptomycin. Cells were grown in a humidified incubator with 5% CO2 in air at 37 °C. For the antiproliferative assay, adherent cells were plated at a density of 5 × 10^4 cells/mL and HL-60 cells at 30 × 10^4 cells/mL. Cells were seeded in 96-well plates (100 µL/well). One day after seeding, cells were treated with medium containing the compounds at concentrations ranging from 0 up to 100 µM during 3 days. The compounds were dissolved in DMSO (1% final concentration) and complete medium. Untreated cells (medium containing 1% DMSO) were used as 100% viability controls. […] Each concentration was tested in sextuplicate and experiments were repeated 2 times. Cell viability was determined by means of the MTT reduction assay at the end of the incubation with the products. The results were transformed to percentage of controls and the IC50 values were graphically obtained from the dose-response curves.

[4] = system: promyelocytic leukemia (HL-60) cells; assay: Antiproliferative assay (MTT reduction), HL-60; assay type: cell-based; conditions: Homo sapiens, 72 h, HL-60 promyelocytic leukemia cells, 3 days treatment, read-out: IC50 ± SD, HL-60
Procedure: as §1

[5] = system: gastric epithelial adenocarcinoma (AGS) cells; assay: Antiproliferative assay (MTT reduction), AGS; assay type: cell-based; conditions: Homo sapiens, 72 h, 3 days treatment, read-out: IC50 ± SD, AGS
Procedure: as §2

[6] = system: MRC-5, AGS, HL-60, SK-MES-1 and J82 cells; assay: Antiproliferative assay (MTT reduction), all cell lines together; assay type: cell-based, human; set-up: key to Antiproliferative activity in words, all cell lines: IC50 values > 100 µM were considered inactive; conditions: SK-MES-1, J82 and HL-60; for IC50: Homo sapiens, range over MRC-5, AGS; for Antiproliferative activity in words, all cell lines: MRC-5, AGS, up to 100 µM
Procedure: as §2

Row | Compound | melting point [°C] | IC50 [2] [µM] | IC50 [3] [µM] | IC50 [4] [µM] | IC50 [5] [µM] | IC50 [1] [µM] | IC50 [6] [µM] | Antiproliferative activity in words, all cell lines [6] | Antiproliferative activity in words, MRC-5 ([1]; MRC-5 cells, up to 100 µM)
1 | C#CCCC(=O)O[C@H]1CC[C@@]2(C)C(CC[C@]3(C)C2CC=C2[C@@H]4CC(C)(C)CC[C@]4(C(=O)OC)CC[C@]23C)C1(C)C (stereo partly drawn) [Compound 2] | 173 | > 100 | > 100 | > 100 | > 100 | > 100 | – | inactive | –
2 | C#CCCCC(=O)O[C@H]1CC[C@@]2(C)C(CC[C@]3(C)C2CC=C2[C@@H]4CC(C)(C)CC[C@]4(C(=O)OC)CC[C@]23C)C1(C)C (stereo partly drawn) [Compound 4] | 176 | > 100 | > 100 | > 100 | > 100 | > 100 | – | inactive | –
3 | CC1(C)CC[C@]2(C(=O)O)CC[C@]3(C)C(=CCC4[C@@]5(C)CC[C@H](OC(=O)CCc6cn(-c7ccccc7)nn6)C(C)(C)C5CC[C@]43C)[C@@H]2C1 (stereo partly drawn) [Compound 5] | – | > 100 | > 100 | > 100 | > 100 | > 100 | – | – | –
4 | COC(=O)[C@]12CCC(C)(C)C[C@H]1C1=CCC3[C@@]4(C)CC[C@H](OC(=O)CCc5cn(-c6ccccc6)nn5)C(C)(C)C4CC[C@@]3(C)[C@]1(C)CC2 (stereo partly drawn) [Compound 6] | – | > 100 | > 100 | > 100 | > 100 | > 100 | – | – | –
5 | COc1ccc(-n2cc(CCC(=O)O[C@H]3CC[C@@]4(C)C(CC[C@]5(C)C4CC=C4[C@@H]6CC(C)(C)CC[C@]6(C(=O)O)CC[C@]45C)C3(C)C)nn2)cc1 (stereo partly drawn) [Compound 7] | 210 | > 100 | > 100 | > 100 | 95.1 ± 5.8 | > 100 | – | – | –
6 | COC(=O)[C@]12CCC(C)(C)C[C@H]1C1=CCC3[C@@]4(C)CC[C@H](OC(=O)CCc5cn(-c6ccc(OC)cc6)nn5)C(C)(C)C4CC[C@@]3(C)[C@]1(C)CC2 (stereo partly drawn) [Compound 8] | – | > 100 | > 100 | > 100 | > 100 | > 100 | – | – | –
7 | COC(=O)[C@]12CCC(C)(C)C[C@H]1C1=CCC3[C@@]4(C)CC[C@H](OC(=O)CCc5cn(Cc6ccc(Cl)cc6)nn5)C(C)(C)C4CC[C@@]3(C)[C@]1(C)CC2 (stereo partly drawn) [Compound 10] | – | > 100 | > 100 | > 100 | > 100 | > 100 | – | activity was lost | –
8 | COC(=O)[C@]12CCC(C)(C)C[C@H]1C1=CCC3[C@@]4(C)CC[C@H](OC(=O)CCc5cn(S(=O)(=O)c6ccc(C)cc6)nn5)C(C)(C)C4CC[C@@]3(C)[C@]1(C)CC2 (stereo partly drawn) [Compound 12] | – | 76.3 ± 5.1 | > 100 | 22.4 ± 1.8 | 63 ± 3.8 | 76 ± 3.8 | – | – | –
9 | CC1(C)CC[C@]2(C(=O)O)CC[C@]3(C)C(=CCC4[C@@]5(C)CC[C@H](OC(=O)CCc6cn(CSc7ccccc7)nn6)C(C)(C)C5CC[C@]43C)[C@@H]2C1 (stereo partly drawn) [Compound 13] | 170 | 65.5 ± 4.4 | > 100 | 18.1 ± 1.6 | 31.6 ± 1.6 | > 100 | – | – | inactive
10 | COC(=O)[C@]12CCC(C)(C)C[C@H]1C1=CCC3[C@@]4(C)CC[C@H](OC(=O)CCc5cn(CSc6ccccc6)nn5)C(C)(C)C4CC[C@@]3(C)[C@]1(C)CC2 (stereo partly drawn) [Compound 14] | 195 | > 100 | > 100 | > 100 | > 100 | > 100 | – | – | –
11 | COC(=O)[C@]12CCC(C)(C)C[C@H]1C1=CCC3[C@@]4(C)CC[C@H](OC(=O)CCCc5cn(S(=O)(=O)c6ccc(C)cc6)nn5)C(C)(C)C4CC[C@@]3(C)[C@]1(C)CC2 (stereo partly drawn) [Compound 16] | – | > 100 | > 100 | 84.2 ± 7.5 | > 100 | > 100 | – | – | –
12 | COC(=O)[C@]12CCC(C)(C)C[C@H]1C1=CCC3[C@@]4(C)CC[C@H](OC(=O)CCCc5cn(CSc6ccccc6)nn5)C(C)(C)C4CC[C@@]3(C)[C@]1(C)CC2 (stereo partly drawn) [Compound 18] | – | > 100 | > 100 | > 100 | > 100 | > 100 | – | – | –
13 | COc1cc([C@@H]2c3cc4c(cc3[C@@H](O[C@@H]3O[C@@H]5CO[C@@H](C)O[C@H]5[C@H](O)[C@H]3O)[C@H]3COC(=O)[C@H]23)OCO4)cc(OC)c1O [Etoposide, reference compound] | – | – | 3.49 ± 0.16 | – | 0.58 ± 0.02 | – | – | – | –

Further molecules by falling IC50 [2], results first:

Row | melting point [°C] | IC50 [2] [µM] | IC50 [3] [µM] | IC50 [4] [µM] | IC50 [5] [µM] | Compound | IC50 [1] [µM] | IC50 [6] [µM] | Antiproliferative activity in words, all cell lines [6] | Antiproliferative activity in words, MRC-5 ([1]; MRC-5 cells, up to 100 µM)
14 | 198 | 61.8 ± 3.1 | > 100 | 11.8 ± 0.9 | 23.7 ± 1.4 | CC1(C)CC[C@]2(C(=O)O)CC[C@]3(C)C(=CCC4[C@@]5(C)CC[C@H](OC(=O)CCCc6cn(CSc7ccccc7)nn6)C(C)(C)C5CC[C@]43C)[C@@H]2C1 (stereo partly drawn) [Compound 17] | 46.7 ± 2.4 | – | – | –
15 | 184 | 50.4 ± 3.5 | 35.4 ± 2.8 | 35.8 ± 4.1 | 8.9 ± 0.4 | CC1(C)CC[C@]2(C(=O)O)CC[C@]3(C)C(=CCC4[C@@]5(C)CC[C@H](OC(=O)CCc6cn(Cc7ccc(Cl)cc7)nn6)C(C)(C)C5CC[C@]43C)[C@@H]2C1 (stereo partly drawn) [Compound 9] | > 100 | – | – | –
16 | 212 | 23.4 ± 1.8 | 56.2 ± 4.3 | 22.4 ± 0.1 | 22.1 ± 1.5 | C#CCCCC(=O)O[C@H]1CC[C@@]2(C)C(CC[C@]3(C)C2CC=C2[C@@H]4CC(C)(C)CC[C@]4(C(=O)O)CC[C@]23C)C1(C)C (stereo partly drawn) [Compound 3] | 14.1 ± 1.2 | 14.1 to 56.2 | – | –
17 | 235 | 22.4 ± 1.9 | 23.1 ± 1.6 | 19.6 ± 0.1 | 19.1 ± 1 | C#CCCC(=O)O[C@H]1CC[C@@]2(C)C(CC[C@]3(C)C2CC=C2[C@@H]4CC(C)(C)CC[C@]4(C(=O)O)CC[C@]23C)C1(C)C (stereo partly drawn) [Compound 1] | 21.3 ± 0.9 | 19.6 to 23.1 | – | –
18 | 163 | 21.4 ± 1.3 | 47.1 ± 2.9 | 15.9 ± 1.5 | 10.8 ± 0.6 | Cc1ccc(S(=O)(=O)n2cc(CCC(=O)O[C@H]3CC[C@@]4(C)C(CC[C@]5(C)C4CC=C4[C@@H]6CC(C)(C)CC[C@]6(C(=O)O)CC[C@]45C)C3(C)C)nn2)cc1 (stereo partly drawn) [Compound 11] | 14.1 ± 0.8 | 10.8 to 47.1 | – | –
19 | 186 | 11.9 ± 0.6 | 14.3 ± 0.6 | 11.5 ± 1 | 22.2 ± 1.6 | Cc1ccc(S(=O)(=O)n2cc(CCCC(=O)O[C@H]3CC[C@@]4(C)C(CC[C@]5(C)C4CC=C4[C@@H]6CC(C)(C)CC[C@]6(C(=O)O)CC[C@]45C)C3(C)C)nn2)cc1 (stereo partly drawn) [Compound 15] | 17.1 ± 1 | 11.5 to 22.2 | – | –
